The values below are quoted from earlier work in patent US9320798B2, “Lipid delivery formulations” (Dicerna Pharmaceuticals, Inc., priority 2010, dated 2016).

The data set concerns TLR4. Particulars: Numata et al. PNAS USA 107: 320-325; Abate et al., J Lipid Res 51: 334-344.

For `CCCCCCCCCCCCCCCC(=O)OC[C@H](COP(=O)([O-])OCC[N+](C)(C)C)OC(=O)CCCCCCCCCCCCCCC` [DPPC, dipalmitoylphosphatidylcholine], the TLR4 activation entry is reported as “capable of disrupting TLR4 activation”.

For `CCCCCCCC/C=C\CCCCCCCC(=O)O[C@H](COC(=O)CCCCCCCCCCCCCCC)COP(=O)(O)OCC(O)CO` (some centres unmarked) [POPG, palmitoyl-oleoyl-phosphatidylglycerol], the TLR4 activation result is recorded as “capable of disrupting TLR4 activation”.
